From ChEMBL document CHEMBL1131839, “Synthesis and dopamine receptor modulating activity of unsubstituted and substituted triproline analogues of L-prolyl-L-leucyl-glycinamide (PLG)” (1999)
“And” between values parts separate entries of the source, which are not always exact repeats. Identical values can stand only once.

Key:
[1] = target: D(2) dopamine receptor (Bos taurus) (UniProt P20288); experiment: Inhibitor constant(Ki) for Dopamine receptor D2 calculated for high affinity(KH) component of [3H]spiperidol binding in the absence of GPP(NH)p pretreated with the compound at 100 nM
[2] = target: D(2) dopamine receptor (Bos taurus) (UniProt P20288); experiment: Inhibitor constant(Ki) for Dopamine receptor D2 calculated for high affinity(KH) component of [3H]spiperidol binding in the presence of GPP(NH)p pretreated with the compound at 100 nM
[3] = target: D(2) dopamine receptor (Bos taurus) (UniProt P20288); experiment: Percentage of Dopamine receptor D2 in the low affinity form(RL) for the agonist was determined in the absence of GPP(NH)p pretreated with the compound at 100 nM; assay type: functional
[4] = target: D(2) dopamine receptor (Bos taurus) (UniProt P20288); experiment: Percentage of Dopamine receptor D2 in the low affinity form(RL) for the agonist was determined in the presence of GPP(NH)p pretreated with the compound at 100 nM; assay type: functional
[5] = target: D(2) dopamine receptor (Bos taurus) (UniProt P20288); experiment: Inhibitor constant(Ki) for Dopamine receptor D2 calculated for low affinity(KL) component of [3H]spiperidol binding in the absence of GPP(NH)p pretreated with the compound at 100 nM
[6] = target: D(2) dopamine receptor (Bos taurus) (UniProt P20288); experiment: Inhibitor constant(Ki) for Dopamine receptor D2 calculated for low affinity(KL) component of [3H]spiperidol binding in the presence of GPP(NH)p pretreated with the compound at 100 nM
[7] = target: D(2) dopamine receptor (Bos taurus) (UniProt P20288); experiment: Percentage of Dopamine receptor D2 in the high affinity form(RH) for the agonist was determined in the absence of GPP(NH)p pretreated with the compound at 100 nM; assay type: functional
[8] = target: D(2) dopamine receptor (Bos taurus) (UniProt P20288); experiment: Percentage of Dopamine receptor D2 in the high affinity form(RH) for the agonist was determined in the presence of GPP(NH)p pretreated with the compound at 100 nM; assay type: functional
[9] = Ratio of RH to RL was determined in the absence of GPP(NH)p pretreated with the compound at 100 nM
[10] = Ratio of RH to RL was determined in the presence of GPP(NH)p pretreated with the compound at 100 nM
[11] = target: D(2) dopamine receptor (Bos taurus) (UniProt P20288); experiment: Inhibitor constant(Ki) for Dopamine receptor D2 calculated for […] component of [3H]-spiperidol binding in the absence of GPP(NH)p pretreated with the compound at 100 nM
Rattus norvegicus [12] = experiment: Maximal increase in rotations at a dose of 10 ug/kg, ip in 6-hydroxydopamine-lesioned rat model of hemi-parkinsonism.; assay type: functional
Rattus norvegicus [13] = experiment: Maximal increase in rotations at a dose of 1 ug/kg, ip in 6-hydroxydopamine-lesioned rat model of hemi-parkinsonism.; assay type: functional
Rattus norvegicus [14] = experiment: Maximal increase in rotations at a dose of 1 mg/kg, ip in 6-hydroxydopamine-lesioned rat model of hemi-parkinsonism.; assay type: functional; settings: route intraperitoneal
Rattus norvegicus [15] = experiment: Maximal increase in rotations at a dose of 0.1 ug/kg, ip in 6-hydroxydopamine-lesioned rat model of hemi-parkinsonism.; assay type: functional

D(2) dopamine receptor (Bos taurus), sequence (P20288 whole entry): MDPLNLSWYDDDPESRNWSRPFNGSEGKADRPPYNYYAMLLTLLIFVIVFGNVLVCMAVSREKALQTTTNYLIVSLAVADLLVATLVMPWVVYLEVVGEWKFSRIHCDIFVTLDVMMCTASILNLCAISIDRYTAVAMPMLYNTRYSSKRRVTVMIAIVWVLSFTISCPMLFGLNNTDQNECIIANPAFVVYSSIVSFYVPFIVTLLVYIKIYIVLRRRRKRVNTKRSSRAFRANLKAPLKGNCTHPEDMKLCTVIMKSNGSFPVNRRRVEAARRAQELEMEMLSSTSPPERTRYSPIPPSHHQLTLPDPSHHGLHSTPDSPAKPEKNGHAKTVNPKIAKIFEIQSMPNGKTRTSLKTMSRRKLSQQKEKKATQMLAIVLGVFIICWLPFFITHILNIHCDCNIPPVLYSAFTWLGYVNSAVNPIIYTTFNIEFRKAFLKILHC

| Structure (SMILES) | KH [1] | KH [2] [nM] | RL [3] [%] | RL [4] [%] | KL [5] [nM] | KL [6] [nM] | RH [7] [%] | RH [8] [%] | Ratio [9] | Ratio [10] | also measured |
| --- | --- | --- | --- | --- | --- | --- | --- | --- | --- | --- | --- |
| CC(C)C[C@H](NC(=O)[C@@H]1CCCN1)C(=O)N1CCC[C@@H]1C(N)=O |  |  |  |  |  |  |  |  |  |  | Increase (Rattus norvegicus [13]): 26% |
| CC(C)CC(NC(=O)[C@@H]1CCCN1)C(=O)NCC(N)=O (single isomer, unassigned) |  |  |  |  |  |  |  |  |  |  | Increase (Rattus norvegicus [14]): 30% |
| CC(C)C[C@H](NC(=O)[C@@H]1CCCN1)C(=O)N1CCCC1C(N)=O (single isomer, unassigned) |  |  |  |  |  |  |  |  |  |  | Increase (Rattus norvegicus [15]): 30% |

Continued, in another order:

| KH [1] | KH [2] [nM] | RL [3] [%] | RL [4] [%] | KL [5] [nM] | KL [6] [nM] | RH [7] [%] | RH [8] [%] | Ratio [9] | Ratio [10] | Structure (SMILES) | also measured |
| --- | --- | --- | --- | --- | --- | --- | --- | --- | --- | --- | --- |
| 0.086 nM | 0.054 | 29 | 33 | 153 | 140 | 71 | 67 | 2.45 | 2.03 | NC(=O)[C@H]1CCCN1C(=O)[C@@H]1CCCN1C(=O)[C@@H]1CCCN1 |  |
| 0.052 nM and 52% | 0.087 | 48 | 46 |  |  |  | 54 | 1.08 | 1.17 | C[C@@H]1CCN(C(=O)[C@@H]2CCCN2)[C@@H]1C(=O)N1CCC[C@H]1C(N)=O | KL [2]: 106 nM; KL [11]: 98 nM |
| 0.05 nM | 0.089 | 27 | 46 | 110 | 88 | 73 | 54 | 2.7 | 1.17 | NC(=O)[C@@H]1CCCN1C(=O)[C@@H]1CCCN1C(=O)[C@@H]1CCCN1 | Increase (Rattus norvegicus [12]): 47% |
